In general, GI50 refers to the concentration that inhibits growth by half.

This assay has as its system NCI-H226 cells, a human mesothelioma cell line. Kind of assay: Cell growth inhibitory effect, cell counting kit 8, 6 days. Type of assay: cell-based. As to conditions: 144 h, 6 days incubation. From the text: Cell growth inhibitory effect on human mesothelioma, human liver cancer, human ovarian cancer, and […]
NCI-H226 cells, a human mesothelioma cell line (ATCC, CRL-5826), NCI-H322 cells, a human lung cancer cell line (the European Collection of Authenticated Cell Cultures, 95111734), OVTOKO cells, a human ovarian cancer cell line (JCRB cell bank, JCRB1048) and HuH28, a human liver cancer cell line (JCRB cell bank, JCRB0426) were each subcultured by keeping the cell density under 80% in a RPMI1640 culture medium with 10% fetal bovine serum (FBS). NCI-H226 cells, NCI-H322 cells and SSP-25 cells were each suspended in the RPM11640 culture medium mentioned above, and plated to a 96-well flat-bottom plate at 500 cells/well in each well, and incubated at 37° C. in an incubator with 5% CO2 for one day. After the incubation, the evaluation of cell growth inhibitory activity was started. OVTOKO cells were suspended in the RPMI1640 culture medium mentioned above, and plated to a 96-well flat-bottom plate at 250 cells/well in each well, and incubated it at 37° C. in an incubator with 5% CO2 for one day. After the incubation, the evaluation of the cell growth inhibitory activity was started. The next day, a test compound was serially diluted to 5 times of its final concentration in the RPM11640 culture medium mentioned above, and the diluted solution was added to each well. In this case, the final concentration of DMSO in each well was adjusted to 0.1%. After the test compound was added, cells were incubated at 37° C. in an incubator with 5% CO2 for 6 days. At the addition of the test compound and 6 days after the addition, the cell counting measurement was performed using a cell counting kit 8 (made by DOJINDO) according to a protocol equivalent to DOJINDO's recommendation. A reagent contained in the kit was added to each plate and color reaction was performed for 2 or 3 hours at 37° C. in an incubator with 5% CO2. After the reaction, an absorbance at wavelength of 450 nm was measured using a microplate reader. A growth inhibition rate was calculated according to the following formula, from which the concentration of a test compound at which cell growth was inhibited by 50% (GI50 value) was determined.
On the technique in general: Formazan colour is commonly taken as a measure of viable cells.

Setting [1] is: group 100 nmol/L to 1 μmol/L (upper bound given in μmol/L).

SMILES strings stand for the structures. A value given as a limit tells only on which side of the number the result lay.

With `C=CC(=O)NC1COc2c(cc(Br)cc2Oc2ccc(C(F)(F)F)nc2)C1` (racemic) [Compound 153, N-(6-Bromo-8-[{6-(trifluoromethyl)pyridin-3-yl}oxy]chroman-3-yl) acrylamide], the GI50 under setting [1] was 100 to 1000 nM. Take `C=CC(=O)N[C@H]1C[C@@H](C)Oc2cc(Oc3ccc(C(F)(F)F)cc3)ccc21` (relative stereo) [Compound 19, cis-N-[2-Methyl-7-{4-(trifluoromethyl)phenoxy}chroman-4-yl]acrylamide]: where the note is “group less than 100 nmol/L”, the GI50 was less than 100 nM. `C=CC(=O)N[C@H]1C[C@H](C)Oc2cc(Oc3ccc(C(F)(F)F)cc3)ccc21` (relative stereo) [Compound 20, trans-N-[2-Methyl-7-{4-(trifluoromethyl)phenoxy}chroman-4-yl]acrylamide]: the concentration for 50% growth inhibition (GI50) (group less than 100 nmol/L) was less than 100 nM. Under setting [1], `C=CC(=O)N[C@H]1CC[C@@H](Oc2ccccc2)c2ncccc21` (relative stereo) [Compound 67, cis-N-(8-Phenoxy-5,6,7,8-tetrahydroquinolin-5-yl)acrylamide] gave a GI50 of 100 to 1000 nM.

In turn, `C=CC(=O)N[C@H]1CC[C@H](Oc2ccc(Cl)cc2)c2nc(OC)ccc21` (relative stereo) [Compound 81, trans-N-{8-(4-Chlorophenoxy)-2-methoxy-5,6,7,8-tetrahydroquinolin-5-yl}acrylamide] registered a GI50 under setting [1] of 100 to 1000 nM.

Take `C=CC(=O)N[C@H]1CC[C@@H](Oc2cnc(Cl)c(Cl)c2)c2nc(Cl)ccc21` (relative stereo) [Compound 181, cis-N-[2-Chloro-8-{(5,6-dichloropyridin-3-yl)oxy}-5,6,7,8-tetrahydroquinolin-5-yl]acrylamide]: the GI50 under setting [1] was in the range of 100 to 1000 nM. `C=CC(=O)N[C@H]1CC[C@@H](Oc2ccc(C(F)(F)F)cc2)c2nc(CC)ccc21` (relative stereo) [Compound 186, cis-N-[2-ethyl-8-{4-(trifluoromethyl)phenoxy}-5,6,7,8-tetrahydroquinolin-5-yl]acrylamide] returned a GI50 under setting [1] of 100 to 1000 nM.

`C=CC(=O)NC1CCOc2cc(Oc3ccccc3)ccc21` (stereo not shown) [Compound 1, N-(7-phenoxychroman-4-yl)acrylamide]: for the setting “group less than 100 nmol/L”, the GI50 was less than 100 nM. In the case of `C=CC(=O)NC1CCOc2cc(Oc3ccc(Cl)cc3)ccc21` (stereo not shown) [Compound 3, N-{7-(4-Chlorophenoxy)chroman-4-yl}acrylamide], the GI50 (group less than 100 nmol/L) was less than 100 nM. Same read-out and setting: under `C=CC(=O)NC1CCOc2cc(Oc3ccc(C(F)(F)F)c(Cl)n3)ccc21` (stereo not shown) [Compound 11, N-(7-[{6-Chloro-5-(trifluoromethyl)pyridin-2-yl}oxy]chroman-4-yl)acrylamide] stands less than 100 nM. Turning to `C=CC(=O)NC1CCOc2cc(OCc3ccccc3)ccc21` (stereo not shown) [Compound 14, N-{7-(Benzyloxy)chroman-4-yl}acrylamide], the GI50 under setting [1] was in the range of 100 to 1000 nM. The compound `C=CC(=O)NC1CCOc2cc(OCC3CCCCC3)ccc21` (stereo not shown) [Compound 16, N-{7-(Cyclohexylmethoxy)chroman-4-yl}acrylamide] yielded a GI50 under setting [1] of 100 to 1000 nM.

For `C=CC(=O)NC1CCOc2cc(Oc3ccc(Cl)cc3)c(C)cc21` (stereo not shown) [Compound 23, N-{7-(4-Chlorophenoxy)-6-methylchroman-4-yl}acrylamide], the GI50 under setting [1] fell in the range of 100 to 1000 nM. For the compound `C=CC(=O)NC1CCOc2ccc(Oc3ccc(Cl)cc3)cc21` (stereo not shown) [Compound 24, N-{6-(4-Chlorophenoxy)chroman-4-yl}acrylamide], under setting [1], the GI50 was in the range of 100 to 1000 nM.

`C=CC(=O)NCC1CCOc2cc(Oc3ccc(Cl)cc3)ccc21` (stereo not shown) [Compound 26, N-[{7-(4-Chlorophenoxy)chroman-4-yl}methyl]acrylamide] came in with a GI50 under setting [1] of 100 to 1000 nM.

On to `Cc1c(Oc2ccc(C(F)(F)F)cc2)ccc2c1OCCC2NC(=O)/C=C/C(F)(F)F` (stereo not shown) [Compound 29, (E)-4,4,4-Trifluoro-N-[8-methyl-7-{4-(trifluoromethyl)phenoxy}chroman-4-yl]-2-butenamide], for which, under setting [1], the GI50 lay in the range of 100 to 1000 nM. Consider `C=CC(=O)NC1CCOc2c1ccc(Oc1ccc(Cl)cc1)c2F` (stereo not shown) [Compound 30, N-{7-(4-Chlorophenoxy)-8-fluorochroman-4-yl}acrylamide], for which the GI50 (group less than 100 nmol/L) was less than 100 nM. Where the note is “group less than 100 nmol/L”, `C=CC(=O)NC1COc2cccc(Oc3ccc(Cl)cc3)c2C1` (stereo not shown) [Compound 34, N-{5-(4-Chlorophenoxy)chroman-3-yl}acrylamide] yielded a GI50 of less than 100 nM. Regarding `C=CC(=O)NC1COc2c(Oc3ccc(Cl)cc3)cccc2C1=O` (stereo not shown) [Compound 39, N-{8-(4-Chlorophenoxy)-4-oxochroman-3-yl}acrylamide], the GI50 (group less than 100 nmol/L) was less than 100 nM. Still for that read-out and setting: under `C=CC(=O)NC1COc2c(cccc2Oc2cccc(C(F)(F)F)c2)C1` (stereo not shown) [Compound 43, N-[8-{3-(Trifluoromethyl)phenoxy}chroman-3-yl]acrylamide] stands less than 100 nM. On to `C=CC(=O)NC1COc2c(cccc2Oc2ccc(C(F)(F)F)cc2)C1` (stereo not shown) [Compound 44, N-[8-{4-(Trifluoromethyl)phenoxy}chroman-3-yl]acrylamide], for which, for the setting “group less than 100 nmol/L”, the GI50 was less than 100 nM. `C=CC(=O)NC1COc2c(cccc2Oc2ccc(Cl)nc2)C1` (stereo not shown) [Compound 49, N-[8-{(6-Chloropyridin-3-yl)oxy}chroman-3-yl]acrylamide]: the GI50 under setting [1] lay in the range of 100 to 1000 nM. Under “group less than 100 nmol/L”, `C=CC(=O)NC1COc2c(cccc2Oc2ccc(C(F)(F)F)cn2)C1` (stereo not shown) [Compound 50, N-(8-[{5-(Trifluoromethyl)pyridin-2-yl}oxy]chroman-3-yl)acrylamide] returned a GI50 of less than 100 nM. Regarding `C=CC(=O)NC1COc2c(cccc2Oc2cnc(Cl)c(C)c2)C1` (stereo not shown) [Compound 56, N-[8-{(6-Chloro-5-methylpyridin-3-yl)oxy}chroman-3-yl]acrylamide], the GI50 (group less than 100 nmol/L) is less than 100 nM.

Under setting [1], `C=CC(=O)Nc1cnc(C)c(Oc2ccc(Cl)cc2)c1` [Compound 92, N-{5-(4-Chlorophenoxy)-6-methylpyridin-3-yl}acrylamide] came in with a GI50 of 100 to 1000 nM. In turn, `C=CC(=O)Nc1cc(Oc2ccc(Cl)cc2)cnc1C` [Compound 93, N-{5-(4-Chlorophenoxy)-2-methylpyridin-3-yl}acrylamide] displayed a GI50 under setting [1] of 100 to 1000 nM. For the compound `C=CC(=O)Nc1cncc(Oc2ccc(Cl)cc2)c1` [Compound 94, N-{5-(4-chlorophenoxy)pyridin-3-yl}acrylamide], under setting [1], the GI50 fell in the range of 100 to 1000 nM. As for `C=CC(=O)Nc1cncc(Oc2ccc(OC(F)(F)F)cc2)c1` [Compound 100, N-[5-{4-(Trifluoromethoxy)phenoxy}pyridin-3-yl]acrylamide], the GI50 (group less than 100 nmol/L) was less than 100 nM. For the compound `C=CC(=O)Nc1cncc(Oc2cccc(OCC)c2)c1` [Compound 101, N-{5-(3-Ethoxyphenoxy)pyridin-3-yl}acrylamide], under setting [1], the GI50 lay within 100 to 1000 nM. On to `C=CC(=O)Nc1cncc(Oc2ccc(OCC)cc2)c1` [Compound 102, N-{5-(4-Ethoxyphenoxy)pyridin-3-yl}acrylamide], for which the GI50 under setting [1] is 100 to 1000 nM.

On to `C=CC(=O)Nc1cncc(Oc2ccc(OC(C)C)cc2)c1` [Compound 103, N-{5-(4-Isopropoxyphenoxy)pyridin-3-yl}acrylamide], for which the GI50 under setting [1] was in the range of 100 to 1000 nM. `C=CC(=O)Nc1cncc(Oc2ccc(Cl)c(Cl)c2)c1` [Compound 105, N-{5-(3,4-Dichlorophenoxy)pyridin-3-yl}acrylamide] came in with a GI50 under setting [1] of 100 to 1000 nM. `C=CC(=O)Nc1ccc(Oc2ccc(Cl)cc2)c2ncccc12` [Compound 116, N-{8-(4-Chlorophenoxy)quinolin-5-yl}acrylamide] registered a GI50 under setting [1] of 100 to 1000 nM. Turning to `C=CC(=O)Nc1ccc(OC2CCC(F)(F)CC2)c2ncccc12` [Compound 120, N-[8-{(4,4-Difluorocyclohexyl)oxy}quinolin-5-yl]acrylamide], the GI50 under setting [1] was in the range of 100 to 1000 nM. The compound `C=CC(=O)Nc1ccc(OCc2ccccc2)c2ncccc12` [Compound 123, N-{8-(Benzyloxy)quinolin-5-yl}acrylamide] yielded a GI50 under setting [1] of 100 to 1000 nM.

In the case of `C=CC(=O)NCc1ccc(Oc2cccc(Cl)c2)c2ncccc12` [Compound 133, N-[{8-(3-chlorophenoxy)quinolin-5-yl}methyl]acrylamide], the GI50 (group less than 100 nmol/L) was less than 100 nM. `C=CC(=O)NCc1ccc(Oc2ccc(C3CC3)cc2)c2ncccc12` [Compound 136, N-[{8-(4-Cyclopropylphenoxy)quinolin-5-yl}methyl]acrylamide] had a GI50 under setting [1] of 100 to 1000 nM. The same measure, in the same setting: under `C=CC(=O)NCc1ccc(Oc2ccc(Cl)nc2)c2ncccc12` [Compound 142, N-([8-{(6-Chloropyridin-3-yl)oxy}quinolin-5-yl]methyl)acrylamide] stands 100 to 1000 nM; under `C=CC(=O)NCc1cc(Oc2ccc(Cl)cc2)nc2ccccc12` [Compound 144, N-[{2-(4-Chlorophenoxy)quinolin-4-yl}methyl]acrylamide], 100 to 1000 nM. Consider `C=CC(=O)NCc1cc(Oc2ccc(C(F)(F)F)cc2)nc2ccccc12` [Compound 146, N-([2-{4-(Trifluoromethyl)phenoxy}quinolin-4-yl]methyl)acrylamide], for which, under setting [1], the GI50 fell in the range of 100 to 1000 nM.

The values are drawn from patent publication US11332455B2, “α,β-unsaturated amide compound” (KYOWA KIRIN CO., LTD., priority 2015, dated 2022).
